Laboratory results as given in patent US20210070748A1, “INHIBITORS OF BRUTONS TYROSINE KINASE” (Pharmacyclics LLC, priority 2015, published 2021).

How the values were obtained:
BTK-WT = target: T1, BTK-WT (Homo sapiens, UniProt Q06187); test: Btk in vitro inhibitory activity (one of Method A TR-FRET, Method B electrophoretic mobility shift, Method C radiometric filter binding); type: biochemical; settings: D-compounds panel data; read-out: IC50 BTK-WT
T1 construct: purified from insect cells as a full-length construct containing an N-terminal 6X-His tag; His6 (N); made in house; host or cells: insect cells (baculovirus Sf21 in Method B)

LCK = LCK (Homo sapiens, UniProt P06239); test: Inhibition of a panel of kinases, in vitro HotSpot kinase assay: LCK; type: biochemical; settings: D-compounds panel data; 1 μM ATP; read-out: IC50 LCK
Sequence of LCK (P06239 whole entry): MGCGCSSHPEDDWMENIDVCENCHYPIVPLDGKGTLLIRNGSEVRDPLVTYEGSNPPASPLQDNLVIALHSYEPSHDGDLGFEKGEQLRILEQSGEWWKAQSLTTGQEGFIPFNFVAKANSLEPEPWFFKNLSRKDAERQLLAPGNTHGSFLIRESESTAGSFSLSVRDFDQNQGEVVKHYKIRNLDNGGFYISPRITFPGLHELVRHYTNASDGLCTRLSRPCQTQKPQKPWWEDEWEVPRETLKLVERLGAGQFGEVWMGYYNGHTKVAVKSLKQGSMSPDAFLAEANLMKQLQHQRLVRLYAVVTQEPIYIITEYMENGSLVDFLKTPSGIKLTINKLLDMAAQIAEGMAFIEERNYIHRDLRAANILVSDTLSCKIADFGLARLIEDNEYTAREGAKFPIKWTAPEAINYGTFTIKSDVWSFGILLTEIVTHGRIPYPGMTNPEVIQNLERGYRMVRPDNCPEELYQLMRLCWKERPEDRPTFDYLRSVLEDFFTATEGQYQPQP

T1 sequence (Q06187 whole entry): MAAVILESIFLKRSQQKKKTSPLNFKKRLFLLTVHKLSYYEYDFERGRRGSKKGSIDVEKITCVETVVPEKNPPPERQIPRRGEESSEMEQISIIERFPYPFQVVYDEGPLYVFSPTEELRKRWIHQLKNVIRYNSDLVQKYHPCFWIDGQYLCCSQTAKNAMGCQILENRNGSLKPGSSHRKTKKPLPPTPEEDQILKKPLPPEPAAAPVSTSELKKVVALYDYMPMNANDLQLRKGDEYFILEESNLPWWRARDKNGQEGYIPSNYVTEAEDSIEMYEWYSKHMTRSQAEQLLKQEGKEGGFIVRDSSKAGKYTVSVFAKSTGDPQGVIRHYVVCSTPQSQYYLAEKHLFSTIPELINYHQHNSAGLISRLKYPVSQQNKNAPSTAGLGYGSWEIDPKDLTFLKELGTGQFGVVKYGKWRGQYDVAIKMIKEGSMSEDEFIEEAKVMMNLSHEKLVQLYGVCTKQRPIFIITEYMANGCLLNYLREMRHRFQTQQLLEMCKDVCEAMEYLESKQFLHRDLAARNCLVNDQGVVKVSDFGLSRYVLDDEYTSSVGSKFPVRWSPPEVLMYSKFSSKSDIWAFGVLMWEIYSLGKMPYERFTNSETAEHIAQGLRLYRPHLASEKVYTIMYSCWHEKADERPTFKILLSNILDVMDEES

Structure (SMILES)	IC50 (BTK-WT) [nM]	IC50 (LCK) [nM]
CCOCCOc1ccc(Nc2nc(N3CCC[C@@H](NC(=O)c4ccc(C5CC5)cc4)[C@H]3C)cnc2C(N)=O)cc1 [Example D-299, 5-[(2R,3R)-3-(4-cyclopropylbenzamido)-2-methylpiperidin-1-yl]-3-{[4-(2-ethoxyethoxy)phenyl]amino}pyrazine-2-carboxamide]	10 to 100	> 10000
C[C@@H]1[C@H](NC(=O)c2ccc(C3CC3)cc2)CCCN1c1cnc(C(N)=O)c(NCC2=CCN(C)CC2)n1 [Example D-300, 5-[(2R,3R)-3-(4-cyclopropylbenzamido)-2-methylpiperidin-1-yl]-3-{[(1-methyl-1,2,3,6-tetrahydropyridin-4-yl)methyl]amino}pyrazine-2-carboxamide]	> 10000	> 10000
C[C@@H]1[C@H](NC(=O)c2ccc(C3CC3)cc2)CCCN1c1cnc(C(N)=O)c(Nc2ccc3c(c2)CCOC3)n1 [Example D-303, 5-[(2R,3R)-3-(4-cyclopropylbenzamido)-2-methylpiperidin-1-yl]-3-[(3,4-dihydro-1H-2-benzopyran-6-yl)amino]pyrazine-2-carboxamide]	10 to 100	> 10000
C[C@@H]1[C@H](NC(=O)c2ccc(C3CC3)nc2)CCCN1c1cnc(C(N)=O)c(Nc2ccc(OC3CCOCC3)cc2)n1 [Example D-309, 5-[(2R,3R)-3-(6-cyclopropylpyridine-3-amido)-2-methylpiperidin-1-yl]-3-{[4-(oxan-4-yloxy)phenyl]amino}pyrazine-2-carboxamide]	≤ 10	100 to 1000
C[C@@H]1[C@H](NC(=O)c2ccc(C3CC3)cc2)CCCN1c1cnc(C(N)=O)c(Nc2cc(C3CCOCC3)ns2)n1 [Example D-310, 5-[(2R,3R)-3-(4-cyclopropylbenzamido)-2-methylpiperidin-1-yl]-3-{[3-(oxan-4-yl)-1,2-thiazol-5-yl]amino}pyrazine-2-carboxamide]	≤ 10	10 to 100
C[C@@H]1[C@H](NC(=O)c2ccc(C3CC3)cc2)CCCN1c1cnc(C(N)=O)c(Nc2cc(C3CCN(C4CCCC4)CC3)ns2)n1 [Example D-311, 3-{[3-(1-cyclopentylpiperidin-4-yl)-1,2-thiazol-5-yl]amino}-5-[(2R,3R)-3-(4-cyclopropylbenzamido)-2-methylpiperidin-1-yl]pyrazine-2-carboxamide]	≤ 10	10 to 100
C[C@@H]1[C@H](NC(=O)c2ccc(C3CC3)cc2)CCCN1c1cnc(C(N)=O)c(Nc2cc(C3CCN(C)CC3)ns2)n1 [Example D-312, 5-[(2R,3R)-3-(4-cyclopropylbenzamido)-2-methylpiperidin-1-yl]-3-{[3-(1-methylpiperidin-4-yl)-1,2-thiazol-5-yl]amino}pyrazine-2-carboxamide]	≤ 10	< 10
C[C@@H]1[C@H](NC(=O)c2ccc(C3CC3)cc2F)CCCN1c1cnc(C(N)=O)c(Nc2ccc(N3CCNCC3)c(F)c2)n1 [Example D-313, 5-[(2R,3R)-3-(4-cyclopropyl-2-fluorobenzamido)-2-methylpiperidin-1-yl]-3-{[3-fluoro-4-(piperazin-1-yl)phenyl]amino}pyrazine-2-carboxamide]	≤ 10	10 to 100
C[C@@H]1[C@H](NC(=O)N(C)C2CC2)CCCN1c1cnc(C(N)=O)c(Nc2cnn(C)c2)n1 [Example D-314, 5-[(2R,3R)-3-{[cyclopropyl(methyl)carbamoyl]amino}-2-methylpiperidin-1-yl]-3-[(1-methyl-1H-pyrazol-4-yl)amino]pyrazine-2-carboxamide]	≤ 10	100 to 1000
C[C@@H]1[C@H](NC(=O)c2ccc(C3CC3)cc2)CCCN1c1cnc(C(N)=O)c(Nc2ccc3c(c2)OC(F)(F)O3)n1 [Example D-315, 5-[(2R,3R)-3-(4-cyclopropylbenzamido)-2-methylpiperidin-1-yl]-3-[(2,2-difluoro-2H-1,3-benzodioxol-5-yl)amino]pyrazine-2-carboxamide]	1000 to 10000	> 10000

Now from value to compound:

IC50 (BTK-WT) [nM]	IC50 (LCK) [nM]	Structure (SMILES)
≤ 10	100 to 1000	C[C@@H]1[C@H](NC(=O)c2ccc(C3CC3)cc2)CCCN1c1cnc(C(N)=O)c(Nc2ccc(C3CCN(C)CC3)cc2)n1 [Example D-301, 5-[(2R,3R)-3-(4-cyclopropylbenzamido)-2-methylpiperidin-1-yl]-3-{[4-(1-methylpiperidin-4-yl)phenyl]amino}pyrazine-2-carboxamide]
≤ 10	10 to 100	C[C@@H]1[C@H](NC(=O)c2ccc(C(C)(C)O)cc2F)CCCN1c1cnc(C(N)=O)c(Nc2cnn(C)c2)n1 [Example D-302, 5-[(2R,3R)-3-[2-fluoro-4-(2-hydroxypropan-2-yl)benzamido]-2-methylpiperidin-1-yl]-3-[(1-methyl-1H-pyrazol-4-yl)amino]pyrazine-2-carboxamide]
≤ 10	100 to 1000	CCN(C)C(=O)N[C@@H]1CCCN(c2cnc(C(N)=O)c(Nc3cnn(C)c3)n2)[C@@H]1C [Example D-304, 5-[(2R,3R)-3-{[ethyl(methyl)carbamoyl]amino}-2-methylpiperidin-1-yl]-3-[(1-methyl-1H-pyrazol-4-yl)amino]pyrazine-2-carboxamide]
≤ 10	100 to 1000	C[C@@H]1[C@H](NC(=O)c2ccc(C3CC3)nc2)CCCN1c1cnc(C(N)=O)c(Nc2ccc(N3CCC(F)(F)CC3)cc2)n1 [Example D-305, 5-[(2R,3R)-3-(6-cyclopropylpyridine-3-amido)-2-methylpiperidin-1-yl]-3-{[4-(4,4-difluoropiperidin-1-yl)phenyl]amino}pyrazine-2-carboxamide]
≤ 10	100 to 1000	C[C@@H]1[C@H](NC(=O)N(C)C)CCCN1c1cnc(C(N)=O)c(Nc2ccc(N3CCC(F)(F)CC3)cc2)n1 [Example D-306, 3-{[4-(4,4-difluoropiperidin-1-yl)phenyl]amino}-5-[(2R,3R)-3-[(dimethylcarbamoyl)amino]-2-methylpiperidin-1-yl]pyrazine-2-carboxamide]
≤ 10	100 to 1000	C[C@@H]1[C@H](NC(=O)c2ccc(C3CC3)cc2)CCCN1c1cnc(C(N)=O)c(Nc2cnn(C3CCC(F)(F)CC3)c2)n1 [Example D-307, 5-[(2R,3R)-3-(4-cyclopropylbenzamido)-2-methylpiperidin-1-yl]-3-{[1-(4,4-difluorocyclohexyl)-1H-pyrazol-4-yl]amino}pyrazine-2-carboxamide]
≤ 10	10 to 100	C[C@@H]1[C@H](NC(=O)c2ccc(C(C)(C)O)cc2F)CCCN1c1nnc(C(N)=O)c(Nc2cnn(C)c2)n1 [Example D-308, 3-[(2R,3R)-3-[2-fluoro-4-(2-hydroxypropan-2-yl)benzamido]-2-methylpiperidin-1-yl]-5-[(1-methyl-1H-pyrazol-4-yl)amino]-1,2,4-triazine-6-carboxamide]
